Assay results from patent US20250353873A1, “COMPOUNDS AND METHODS FOR MODULATING APOE EXPRESSION” (Ionis Pharmaceuticals, Inc., priority 2024, published 2025).
Strand notation (5' to 3'): a small letter for the sugar, then the base; units joined by * are phosphorothioate-linked, units joined directly phosphodiester-linked; [ ] holds rarer units or linkages, { } end groups; capitals alone tell only the bases. [ms] = mesyl phosphoramidate linkage; e = 2'-O-(2-methoxyethyl) (MOE); k = constrained ethyl (cEt); [5mC] = 5-methylcytosine; d = 2'-deoxy (DNA)

Key:
human APOE RNA [1] = assay: Potency (dose response, ED50) in APOE C57BL/6NTac-Apoeem7250 knock-in mice, 4 weeks (Example 14); type: in vivo
Protocol: Modified oligonucleotides described above were tested in the APOE C57BL/6NTac-Apoeem7250 knock-in mouse model described above.
APOE C57BL/6NTac-Apoeem7250 knock-in mice were divided into groups of 3-4 mice each. A group of 3-4 mice received a single ICV bolus with PBS as a negative control.
Four weeks post treatment, mice were sacrificed, and RNA was extracted from cortical brain tissue and spinal cord for quantitative real-time RT-PCR analysis of RNA expression of […] using human primer probe set RTS3073 (described herein above). APOE RNA levels were normalized to mouse Ppia. Mouse Ppia was amplified using primer probe set m_cyclo24 (described herein above). Results are presented as percent human APOE RNA relative to the amount of APOE RNA in PBS treated animals, (% control). N.C. indicates values that were not calculated. Each experiment is identified in separate tables below.
The half maximal effective dose (ED50) of each modified oligonucleotide was calculated using GraphPad Prism 10 software (GraphPad Software, San Diego, CA).

human APOE RNA [2] = assay: Dose-dependent inhibition of human APOE RNA in differentiated SH-SY5Y cells, free uptake, 5 days (Example 5); type: cell-based
How it was run: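 Differentiated SH-SY5Y cells (10,000/well) treated by free uptake with graded oligonucleotide concentrations for 5 days. APOE RNA quantified with primer probe set RTS3073, normalized to PPIA, expressed as % untreated control; IC50 calculated.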

human APOE RNA [3] = assay: Activity in APOE C57BL/6NTac-Apoeem7250 knock-in mice, single ICV bolus, 4 weeks (Example 10); type: in vivo; conditions: single ICV bolus 300 μg, 4 weeks post treatment, normalized to mouse Ppia
How it was run: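 Knock-in mice (2–4 per group) received one 300 μg ICV bolus of oligonucleotide or PBS. After four weeks, human APOE RNA in cortex and spinal cord measured by RT-qPCR (primer probe set RTS3073), normalized to mouse Ppia, expressed as % of PBS controls.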

human APOE RNA [4] = assay: Dose-dependent reduction of human APOE RNA in HepG2 cells, electroporation, 20,000 cells per well, average of GAPDH- and PPIA-normalized results (Example 4, Table 12); type: cell-based; conditions: HepG2, 20,000 cells per well; for IC50: approximately 24 hours
Protocol: HepG2 cells plated at a density of 20,000 cells per well were treated by electroporation with various concentrations of modified oligonucleotide as specified in the tables below. […] APOE RNA levels were measured using the human primer probe set RTS3073 (described herein above). APOE RNA levels were normalized to human GAPDH, and human PPIA. Human GAPDH was amplified using human primer probe set RTS104 (described herein above). Human PPIA was amplified using human primer probe set mk_cycloA_2nd (described herein above) The average of the GAPDH-normalized results and the PPIA-normalized results are presented in the table below as percent APOE RNA, relative to the amount of APOE RNA in untreated control cells (% UTC). The half maximal inhibitory concentration (IC50) of each modified oligonucleotide was calculated in GraphPad Prism 10 (GraphPad Software, San Diego, CA) and is also presented in the table below.

human APOE RNA [5] = assay: Activity in APOE C57BL/6NTac-Apoeem7250 knock-in mice, single ICV bolus, 8 weeks (Example 11); type: in vivo; conditions: for APOE RNA (% control) Cortex / APOE RNA (% control) Spinal Cord: single ICV bolus 300 μg, 8 weeks post treatment, normalized to mouse Ppia
How it was run: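 Human APOE knock-in C57BL/6NTac mice given one ICV bolus of 300 μg oligonucleotide; PBS-dosed group as control. At 8 weeks, cortex and spinal cord RNA measured by qRT-PCR (human probe RTS3073), normalized to mouse Ppia, expressed as % of PBS control.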

Substance	APOE RNA (% UTC) (human APOE RNA [2]; 5 nM, 5 days (Table 14))	APOE RNA (% UTC) (human APOE RNA [2]; 13 nM, 5 days (Table 14))	APOE RNA (% UTC) (human APOE RNA [2]; 33 nM, 5 days (Table 14))	APOE RNA (% UTC) (human APOE RNA [2]; 82 nM, 5 days (Table 14))	APOE RNA (% UTC) (human APOE RNA [2]; 205 nM, 5 days (Table 14))	APOE RNA (% UTC) (human APOE RNA [2]; 512 nM, 5 days (Table 14))	APOE RNA (% UTC) (human APOE RNA [2]; 1,280 nM, 5 days (Table 14))	APOE RNA (% UTC) (human APOE RNA [2]; 3,200 nM, 5 days (Table 14))	APOE RNA (% UTC) (human APOE RNA [2]; 8,000 nM, 5 days (Table 14))	APOE RNA (% UTC) (human APOE RNA [2]; 20,000 nM, 5 days (Table 14))	IC50 (human APOE RNA [2]; 5 days (Table 14)) [nM]	APOE RNA (% control) Cortex (human APOE RNA [3]) [% control]	APOE RNA (% control) Spinal Cord (human APOE RNA [3]) [% control]	APOE RNA (% UTC) (human APOE RNA [4]; 5 nM)	APOE RNA (% UTC) (human APOE RNA [4]; 13 nM)	APOE RNA (% UTC) (human APOE RNA [4]; 33 nM)	APOE RNA (% UTC) (human APOE RNA [4]; 82 nM)	APOE RNA (% UTC) (human APOE RNA [4]; 205 nM)	APOE RNA (% UTC) (human APOE RNA [4]; 512 nM)	APOE RNA (% UTC) (human APOE RNA [4]; 1,280 nM)	further results
1757575 (eA*e[5mC]eTeT*kG*kG*dT*dG[ms]dA[ms]dA[ms]dT*d[5mC]*dT*dT*dT*dA[ms]kT*eT*eA*eA; antisense) [Compound 1757575]	44	56	39	50	34	30	26	23	12	11	10	38	27	92	96	93	81	72	47	34	APOE RNA (% control) Cortex (human APOE RNA [1]; cortex, ICV dose 10 μg): 100 % control; APOE RNA (% control) Cortex (human APOE RNA [1]; cortex, ICV dose 30 μg): 82 % control; APOE RNA (% control) Cortex (human APOE RNA [1]; cortex, ICV dose 100 μg): 88 % control; APOE RNA (% control) Cortex (human APOE RNA [1]; cortex, ICV dose 300 μg): 51 % control; APOE RNA (% control) Cortex (human APOE RNA [1]; cortex, ICV dose 700 μg): 30 % control; ED 50 (μg) Cortex (human APOE RNA [1]; cortex, single ICV bolus, GraphPad Prism 10): 337.5 µg; APOE RNA (% control) Spinal Cord (human APOE RNA [1]; spinal cord, ICV dose 10 μg): 82 % control; APOE RNA (% control) Spinal Cord (human APOE RNA [1]; spinal cord, ICV dose 30 μg): 48 % control; APOE RNA (% control) Spinal Cord (human APOE RNA [1]; spinal cord, ICV dose 100 μg): 40 % control; APOE RNA (% control) Spinal Cord (human APOE RNA [1]; spinal cord, ICV dose 300 μg): 28 % control; APOE RNA (% control) Spinal Cord (human APOE RNA [1]; spinal cord, ICV dose 700 μg): 51 % control; ED 50 (μg) Spinal Cord (human APOE RNA [1]; spinal cord, single ICV bolus, GraphPad Prism 10): 84.6 µg; APOE RNA (% UTC) (human APOE RNA [4]; 3,200 nM): 27 % UTC; APOE RNA (% UTC) (human APOE RNA [4]; 8,000 nM): 10 % UTC; APOE RNA (% UTC) (human APOE RNA [4]; 20,000 nM): 5 % UTC; IC50 (human APOE RNA [4]): 570 nM; APOE RNA (% control) Cortex (human APOE RNA [5]): 35 % control; APOE RNA (% control) Spinal Cord (human APOE RNA [5]): 32 % control
^mCksTksTksGdzGdzTdzGdzAdzAdzTds^mCdsTdsTdsTdsAdsTdsTksAksAdzAk (antisense k[5mC]*kT*kT*dG[ms]dG[ms]dT[ms]dG[ms]dA[ms]dA[ms]dT*d[5mC]*dT*dT*dT*dA*dT*kT*kA*dA[ms]kA) [Compound No. 1785602]	84	106	83	69	42	32	26	19	10	8	230	34	33	97	91	85	70	56	36	33	APOE RNA (% UTC) (human APOE RNA [2]; 5 nM, 5 days (Table 13)): 74 % UTC; APOE RNA (% UTC) (human APOE RNA [2]; 13 nM, 5 days (Table 13)): 60 % UTC; APOE RNA (% UTC) (human APOE RNA [2]; 33 nM, 5 days (Table 13)): 64 % UTC; APOE RNA (% UTC) (human APOE RNA [2]; 82 nM, 5 days (Table 13)): 49 % UTC; APOE RNA (% UTC) (human APOE RNA [2]; 205 nM, 5 days (Table 13)): 40 % UTC; APOE RNA (% UTC) (human APOE RNA [2]; 512 nM, 5 days (Table 13)): 30 % UTC; APOE RNA (% UTC) (human APOE RNA [2]; 1,280 nM, 5 days (Table 13)): 36 % UTC; APOE RNA (% UTC) (human APOE RNA [2]; 3,200 nM, 5 days (Table 13)): 32 % UTC; APOE RNA (% UTC) (human APOE RNA [2]; 8,000 nM, 5 days (Table 13)): 15 % UTC; APOE RNA (% UTC) (human APOE RNA [2]; 20,000 nM, 5 days (Table 13)): 6 % UTC; IC50 (human APOE RNA [2]; 5 days (Table 13)): 90 nM; APOE RNA (% UTC) (human APOE RNA [4]; 3,200 nM): 8 % UTC; APOE RNA (% UTC) (human APOE RNA [4]; 8,000 nM): 21 % UTC; APOE RNA (% UTC) (human APOE RNA [4]; 20,000 nM): 3 % UTC; IC50 (human APOE RNA [4]): 300 nM; reduction of human APOE RNA in the cortex (human APOE RNA [5]; APOE knock-in mouse model, 8 weeks post administration, assay of Example 11): 73%; APOE RNA (% control) Cortex (human APOE RNA [5]): 27 % control; APOE RNA (% control) Spinal Cord (human APOE RNA [5]): 26 % control
